Tests used:
[1] = system: SK-N-SH human neuroblastoma cells; assay: Detection of NO produced by cNOS in SK-N-SH cells (fluorescence imaging); format: cell-based; conditions: estradiol-stimulated neuroblastoma cells
Method: FIG. 7 illustrates Cu(FL5) detection of NO produced by cNOS. (a) NO detection in SK-N-SH cells by Cu(FL5). Left to right: 25 min incubation of Cu(FL5) (1 μM) and 5, 10, 15, 25 min after co-treatment of Cu(FL5) (1 μM) and 17β-estradiol (100 nM). Images were taken with a Nikon Eclipse TS100 microscope after removing the DMEM media and washing the cells with PBS. Top: fluorescence images; bottom: phase contrast images. (b) Fluorescence intensity (F(t)/FCu(FL5)) from a was plotted against incubation time. (c) NO production with or without of L-NNA. Right: NO detection in cells after 10 min co-incubation of Cu(FL5) (1 μM) and 17β-estradiol (100 nM). Left: NO detection in cells pre-treated with L-NNA for 1 h before addition of Cu(FL5) and 17β-estradiol.
We investigated the ability of Cu(FL5) to detect NO produced in SK-N-SH human neuroblastoma cells under physiological conditions, since constitutive NO synthase (“cNOS”) in this cell line can be activated by estrogen to produce NO. Estrogen administration leads to an increase in the cytosolic Ca(II) concentration that alters the structure of calmodulin, which in turn activates cNOS. The NO-dependent fluorescence response, monitored after simultaneous administration of 17β-estradiol (100 nM) and Cu(FL5) (1 μM) to the cells, was completed within 5 min with a 4.0±0.6-fold increase in fluorescence (FIGS. 5a and b). […] As another control, HeLa cells were co-treated with 17β-estradiol (100 nM) and Cu(FL5) (1 μM).
Raw 264.7, SK-N-SH, and HeLa cells were purchased from the American Type Culture Collection (ATCC). All three cell lines were maintained in Dulbecco's modified Eagles' media (DMEM) (GibcoBRL) containing 10% (v/v) heat-inactivated fetal bovine serum (FBS) (HyClone), 1 mM sodium pyruvate (Sigma), 100 units/ml penicillin, 100 μg/ml streptomycin (Invitrogen), and 0.1 mM nonessential amino acid solution for minimal essential medium (Sigma). All cells were grown at 37° C. in a humidified atmosphere of 10% CO2. A nitrite assay was performed with Griess reagents (Promega) on Raw 264.7 cells grown in DMEM free of phenol red. Calcium sensor fluo-4 AM was purchased from Invitrogen. MTT [3-(4,5-dimethylthiazol-2-yl)-2,5-diphenyltetrazolium bromide] (Sigma-Aldrich) assay was described in Supplementary information. The expression of iNOS in Raw 264.7 cells was analyzed by Western blot on the extracts of cells stimulated by LPS and INF-γ. The protein was silenced by short hairpin RNA-induced RNAi and the resulting cell lines were used in fluorescence imaging by Cu(FL5).

[2] = Stability of nitrosated ligand at pH 7.0; format: physicochemical
Description: High resolution MS of FL5-^14NO and FL-^15NO were also obtained, showing m/z=600.0729 for FL5-^14NO and 601.0736 for FL5-^15NO, corresponding to [FL5+NO−H+Cl]^− (calcd. m/z 600.0729 and 601.0700).

Quantum yield = format: physicochemical
Description: Quantum yield may be obtained by comparison of the integrated area of the corrected emission spectrum of the sample with that of a reference solution. A preferred reference solution is a solution of fluorescein in 0.1 N NaOH, quantum efficiency 0.95. The concentration of the reference is adjusted to match the absorbance of the test sample. The quantum yields may be calculated using the following equation.
Upon addition of excess NO, a 499 nm peak in the UV-vis spectrum of Cu(FL5) in pH 7.0 buffered solution red-shifted back to the λmax characteristic of FL5 or the synthetic FL5−NO compound (504 nm), which differs from the band formed in the reaction of FL5 with 1 equivalent of Cu(I) added as [Cu(CH3CN)4](BF4) (506 nm). […] In addition, the spectrum of the NO reaction solution closely resembled that of the monoanionic fluorescein formed by lowering the pH from 7.0 to 5.0. […] These values are in the range previously reported for N-nitrosamines. The presence of two separate chemical shifts might arise from different isomers in solution, the Δδ of 2.29 being similar to that of previously reported of N-nitrosamines. […] Lastly, FL5−NO is brighter than FL5 or Cu(FL5), the respective quantum yields being ΦFL-NO=0.58±0.02 and ΦFL=0.077±0.002.

[3] = Fluorescence response to NO in buffered aqueous solution
Method: FIG. 5 depicts the fluorescence response of Cu(FL5) to NO. Fluorescence emission spectra (λex=503 nm) of a deoxygenated 1 μM solution of Cu(FL5) in buffered solution (50 mM PIPES, pH 7.0, 100 mM KCl) before (dashed line), immediately, 1, 2 and 5 min after (solid lines) admission of 1300 equiv of NO (g) at 37° C.
The fluorescence of a 1 μM FL5 solution was diminished by 18±3% upon introduction of an equimolar quantity of CuCl2 at 37° C. Addition of excess NO to a buffered aqueous Cu(FL5) solution led to an immediate 11.2±1.5-fold increase in fluorescence (FIG. 5). […] The lower detection limit for NO is 5 nM.
A commercially available NO probe, DAF-2 (o-diaminofluorescein), was used for comparison with Cu(FL5). The fluorescence of DAF-2 is unchanged in the presence of NO and the absence of O2 over a period of 1 h.
As depicted in FIG. 4, NO detection by Cu(FL5) occurs, formally, by nitric oxide-induced reduction of Cu(II) to Cu(I), forming NO^+, which nitrosates the ligand with concomitant dissociation from copper and fluorescence turn-on. The mechanism of turn-on emission of Cu(FL5) by NO was investigated by EPR, UV-vis, NMR and fluorescence spectroscopy and by liquid chromatography-mass spectrometry (LC-MS, low resolution MS).

CC(=O)Oc1ccc2c(c1)Oc1cc(OC(C)=O)ccc1C21OC(=O)c2cc(N)c(N)cc21 [DAF-2 DA, o-diaminofluorescein diacetate, reference compound]
fluorescence increase of treated cells 30 min after activation of cNOS [1]: only a slight fluorescence increase

Cc1ccc2cccc(N(Cc3c(O)ccc4c(-c5ccccc5C(=O)O)c5cc(Cl)c(=O)cc-5oc34)N=O)c2n1 [FL5−NO, 2-{2-chloro-6-hydroxy-5-[((2-methylquinolin-8-yl)(nitroso)amino)-methyl]-3-oxo-3H-xanthen-9-yl}-benzoic acid]
stability [2]: stable for several days
quantum yield Φ (Quantum yield): 0.58±0.02

o-diaminofluorescein [DAF-2, reference compound]
fluorescence in the presence of NO when O2 is present [3]: turn-on fluorescence
fluorescence in the presence of NO and the absence of O2 ([3]; over a period of 1 h): unchanged

Reference: US7494821B2, “Fluorescein based sensors for tracking nitric oxide in live cells” (Massachusetts Institute of Technology, priority 2005, dated 2009)
